Test results reported in ChEMBL document CHEMBL1177848, “Synthesis of novel 6,6a,7,8-tetrahydro-5H-naphtho[1,2-e]pyrimido[4,5-b][1,4]diazepines under microwave irradiation as potential anti-tumor agents” (2010).
Calls of active or inactive are those of the source. No cut-off for these calls is given here.

What was measured:
HOP-62 = experiment: Growth inhibition of human HOP62 cells after 48 hrs by sulforhodamine B assay; format: functional; conditions: HOP-62, 48 h
NCI-H322M = experiment: Growth inhibition of human […] cells after 48 hrs by sulforhodamine B assay; format: functional
HCT-15 = experiment: Growth inhibition of human HCT15 cells after 48 hrs by sulforhodamine B assay; format: functional; conditions: HCT-15, 48 h
HCC 2998 = experiment: Growth inhibition of human HCC2998 cells after 48 hrs by sulforhodamine B assay; format: functional; conditions: HCC 2998, 48 h
SF-539 = experiment: Growth inhibition of human SF539 cells after 48 hrs by sulforhodamine B assay; format: functional; conditions: SF-539, 48 h; for CC50: read-out: LC50 (the source's name)
SK-MEL-2 = experiment: Growth inhibition of human SK-MEL-2 cells after 48 hrs by sulforhodamine B assay; format: functional; conditions: SK-MEL-2, 48 h
OVCAR-8 = experiment: Growth inhibition of human OVCAR8 cells after 48 hrs by sulforhodamine B assay; format: functional; conditions: OVCAR-8, 48 h
786-0 = experiment: Growth inhibition of human 786-0 cells after 48 hrs by sulforhodamine B assay; format: functional; conditions: 786-0, 48 h
DU-145 = experiment: Growth inhibition of human DU145 cells after 48 hrs by sulforhodamine B assay; format: functional; conditions: DU-145, 48 h
K562 [1] = experiment: Growth inhibition of human K562 cells at 1 uM after 48 hrs by sulforhodamine B assay; format: functional, cell-based
Hs-578T [2] = experiment: Growth inhibition of human Hs 578T cells at 1 uM after 48 hrs by sulforhodamine B assay; format: functional, cell-based
CCRF-CEM = experiment: Growth inhibition of human CCRF-CEM cells after 48 hrs by sulforhodamine B assay; format: functional
HL-60 = experiment: Growth inhibition of human HL-60(TB) cells after 48 hrs by sulforhodamine B assay; format: functional; conditions: HL-60, 48 h
K562 [3] = experiment: Growth inhibition of human K562 cells after 48 hrs by sulforhodamine B assay; format: functional; conditions: K562, 48 h
MOLT-4 = experiment: Growth inhibition of human MOLT4 cells after 48 hrs by sulforhodamine B assay; format: functional; conditions: MOLT-4, 48 h
A549 = experiment: Growth inhibition of human A549 cells after 48 hrs by sulforhodamine B assay; format: functional; conditions: A549, 48 h
SF-268 = experiment: Growth inhibition of human SF268 cells after 48 hrs by sulforhodamine B assay; format: functional; conditions: SF-268, 48 h
[4] = Growth inhibition of human SF530 cells after 48 hrs by sulforhodamine B assay; format: functional; conditions: SF530, 48 h
SNB-75 = experiment: Growth inhibition of human SNB75 cells after 48 hrs by sulforhodamine B assay; format: functional; conditions: SNB-75, 48 h
M14 = experiment: Growth inhibition of human M14 cells after 48 hrs by sulforhodamine B assay; format: functional; conditions: M14, 48 h
SK-MEL-28 = experiment: Growth inhibition of human SK-MEL-28 cells after 48 hrs by sulforhodamine B assay; format: functional; conditions: SK-MEL-28, 48 h
Hs-578T [5] = experiment: Growth inhibition of human Hs 578T cells after 48 hrs by sulforhodamine B assay; format: functional
[6] = read-out: LC50 (the source's name)

Compound: Nc1nc(N)c2c(n1)NC(c1ccc(F)cc1)C1CCc3ccccc3C1=N2 (centres undefined)
- GI50 (HOP-62): 6 µM
- LC50 (concentration killing 50% of cells) (HOP-62): 51.6 µM
- GI50 (NCI-H322M): 9.63 µM
- CC50 (NCI-H322M; [6]): 48 µM
- GI50 (HCT-15): 3.99 µM
- LC50 (HCT-15): 43 µM
- GI50 (HCC 2998): 2.44 µM
- LC50 (concentration killing 50% of cells) (HCC 2998): 24.3 µM
- GI50 (SF-539): 1.71 µM
- CC50 (SF-539): 32 µM
- GI50 (SK-MEL-2): 5.73 µM
- LC50 (SK-MEL-2): 50.2 µM
- GI50 (OVCAR-8): 8.07 µM
- LC50 (concentration killing 50% of cells) (OVCAR-8): 80.7 µM
- GI50 (786-0): 6.9 µM
- LC50 (50% lethal concentration) (786-0): 47.8 µM
- GI50 (DU-145): 7.45 µM
- LC50 (50% lethal concentration) (DU-145): 44.5 µM
- growth inhibition (GI) (K562 [1]): inactive
- growth inhibition (GI) (Hs-578T [2]): inactive

Compound: Nc1nc(N)c2c(n1)NC(c1ccccc1)C1CCc3ccccc3C1=N2 (centres undefined)
- GI50 (CCRF-CEM): 4.47 µM
- CC50 (CCRF-CEM; [6]): > 100 µM
- GI50 (HL-60): 2.37 µM
- CC50 (HL-60; [6]): > 100 µM
- GI50 (K562 [3]): 3.42 µM
- CC50 (K562 [3]; [6]): > 100 µM
- GI50 (MOLT-4): 2.7 µM
- CC50 (MOLT-4; [6]): > 100 µM
- GI50 (HOP-62): 7.87 µM
- LC50 (concentration killing 50% of cells) (HOP-62): 49.7 µM
- GI50 (A549): 7.11 µM
- CC50 (A549; [6]): 82.2 µM
- GI50 (HCT-15): 4.06 µM
- LC50 (HCT-15): 48.8 µM
- GI50 (HCC 2998): 3.82 µM
- LC50 (concentration killing 50% of cells) (HCC 2998): 41.2 µM
- GI50 (SF-268): 6.96 µM
- CC50 (SF-268; [6]): 45.7 µM
- GI50 [4]: 5.81 µM
- CC50 [4, 6]: 43.7 µM
- GI50 (SNB-75): 7.95 µM
- CC50 (SNB-75; [6]): 45.6 µM
- GI50 (SK-MEL-2): 3.48 µM
- LC50 (SK-MEL-2): 43.6 µM
- GI50 (M14): 4.88 µM
- CC50 (M14; [6]): 44.2 µM
- GI50 (SK-MEL-28): 7.72 µM
- CC50 (SK-MEL-28; [6]): 45.1 µM
- GI50 (OVCAR-8): 4.71 µM
- LC50 (concentration killing 50% of cells) (OVCAR-8): > 100 µM
- GI50 (786-0): 5.99 µM
- LC50 (50% lethal concentration) (786-0): 45.7 µM
- GI50 (DU-145): 4.38 µM
- LC50 (50% lethal concentration) (DU-145): 42.1 µM
- GI50 (Hs-578T [5]): 5.85 µM
- CC50 (Hs-578T [5]; [6]): > 100 µM
- growth inhibition (GI) (K562 [1]): inactive
- growth inhibition (GI) (Hs-578T [2]): inactive

Compound: Nc1nc(N)c2c(n1)NC(c1ccc(Cl)cc1)C1CCc3ccccc3C1=N2 (centres undefined)
- GI50 (HCT-15): 4.16 µM
- LC50 (HCT-15): 53.9 µM
- GI50 (SF-539): 6.17 µM
- CC50 (SF-539): 44.3 µM
- growth inhibition (GI) (K562 [1]): inactive
- growth inhibition (GI) (Hs-578T [2]): inactive
